From US20260092061A1, “COMPOUNDS FOR TARGETED PROTEIN DEGRADATION” (Amphista Therapeutics Limited, priority 2022, published 2026)

Target: T1, BRD9 (Homo sapiens, UniProt Q9H8M2)
T1 sequence (Q9H8M2 1-597): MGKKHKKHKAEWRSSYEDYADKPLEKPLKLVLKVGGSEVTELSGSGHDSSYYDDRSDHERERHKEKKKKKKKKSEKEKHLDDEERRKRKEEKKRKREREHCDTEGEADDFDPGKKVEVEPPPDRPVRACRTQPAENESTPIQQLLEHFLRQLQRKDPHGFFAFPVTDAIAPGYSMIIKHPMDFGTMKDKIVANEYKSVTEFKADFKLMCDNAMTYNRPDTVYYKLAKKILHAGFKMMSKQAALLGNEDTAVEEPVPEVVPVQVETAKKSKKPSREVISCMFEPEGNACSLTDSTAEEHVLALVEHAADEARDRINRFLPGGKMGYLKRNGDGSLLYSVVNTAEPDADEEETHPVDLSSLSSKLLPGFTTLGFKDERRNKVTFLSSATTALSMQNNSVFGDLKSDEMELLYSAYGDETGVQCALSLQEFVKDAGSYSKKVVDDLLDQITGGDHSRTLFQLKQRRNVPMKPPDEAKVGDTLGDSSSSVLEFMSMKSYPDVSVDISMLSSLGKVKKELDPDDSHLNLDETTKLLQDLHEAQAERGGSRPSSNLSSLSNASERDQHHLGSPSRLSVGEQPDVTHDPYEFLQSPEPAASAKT
Assay: BRD9 degradation, HiBiT-BRD9 KI HEK293 (LgBiT) cells, NanoGlo Lytic Endpoint assay (Assay Protocol 1)
Format: cell-based
Conditions: Table 2, BRD9 degradation, Assay Protocol 1; for Dmax at 1 µM: HEK293, 1 μM compound at 6 h of treatment, read-out: Assay 1 Dmax; for DC50: 6 h of treatment, read-out: Assay 1 DC50
Description: HiBiT-BRD9 KI HEK293 (LgBiT) Cells (Promega CS3023412) were seeded at 8000 cells per well (38 μL) in sterile white bottom 384 well plates (Invitrogen 164610 or Greiner 781080) and incubated overnight at 37° C. with 5% CO2. The next day, compounds were prepared at 1000× final concentration in DMSO and diluted 1:100 in media (DMEM PAN Biotech P04-03550+10% FBS ATCC 302025). 4 μL compound was added to each well of the cell plate and incubated for 6 h at 37° C. with 5% CO2 BRD9 expression was quantified using the NanoGlo Lytic Endpoint assay (Promega N3050). The lytic buffer was equilibrated to room temperature for 10-15 min before lytic reagent was prepared by adding substrate (1:50) and LgBit protein (1:100) in lytic buffer. 40 μL lytic reagent mix was added to each well of the cel plate and plates were centrifuged briefly at ˜50g. Plates were incubated with shaking (350 RPM) for 12-24 min before reading using the LUM plus module of a BMG Pherastar FSX. Data was analysed using Dotmatics software and % BRD9 remaining was calculated by normalisation to average data from high and low control wells (DMSO treated cels and no cells respectively).

| Compound | Dmax at 1 µM [%] | DC50 [nM] |
| --- | --- | --- |
| COc1cc(-c2cn(C)c(=O)c3cnccc23)cc(OC)c1CN1CCN(Cc2cccc3c2CCN(C(=O)/C(C#N)=C\C(C)(C)CF)C3C)CC1 (mixture of isomers) [Compound A18, (E/Z)-2-(5-((4-(2,6-dimethoxy-4-(2-methyl-1-oxo-1,2-dihydro-2,7-naphthyridin-4-yl)benzyl)piperazin-1-yl)methyl)-1-methyl-1,2,3,4-tetrahydroisoquinoline-2-carbonyl)-5-fluoro-4,4-dimethylpent-2-enenitrile] | 40 to 70 | < 1.25 |
| COc1cc(-c2cn(C)c(=O)c3cnccc23)cc(OC)c1CN1CCN(Cc2cccc3c2CCN(C(=O)/C(C#N)=C\c2ccns2)C3C)CC1 (mixture of isomers) [Compound A23, (E/Z)-2-(5-((4-(2,6-dimethoxy-4-(2-methyl-1-oxo-1,2-dihydro-2,7-naphthyridin-4-yl)benzyl)piperazin-1-yl)methyl)-1-methyl-1,2,3,4-tetrahydroisoquinoline-2-carbonyl)-3-(isothiazol-5-yl)acrylonitrile] | 40 to 70 | 1.25 to 10 |
| COc1cc(-c2cn(C)c(=O)c3cnccc23)cc(OC)c1CN1CC2CC1CN2Cc1cccc2c1CCN(C(=O)/C(C#N)=C/C(C)(C)C)C2C (single isomer, unassigned) [Compound A39, (E/Z)-2-(5-((5-(2,6-dimethoxy-4-(2-methyl-1-oxo-1,2-dihydro-2,7-naphthyridin-4-yl)benzyl)-2,5-diazabicyclo[2.2.1]heptan-2-yl)methyl)-1-methyl-1,2,3,4-tetrahydroisoquinoline-2-carbonyl)-4,4-dimethylpent-2-enenitrile] | 40 to 70 | 1.25 to 10 |
| COc1cc(-c2cn(C)c(=O)c(C)c2C)cc(OC)c1CN1CCN(Cc2cccc3c2CCN(C(=O)/C(C#N)=C/C2CCC2)C3C)CC1 (mixture of isomers) [Compound A45] | 70 to 75 | 1.25 to 10 |
| COc1cc(-c2cn(C)c(=O)c(C)c2C)cc(OC)c1CN1CCN(C(=O)CCc2ccc3c(c2)CCN(C(=O)/C(C#N)=C/c2nccs2)C3C)CC1 (mixture of isomers) [Compound A56, (E/Z)-2-(6-(3-(4-(2,6-dimethoxy-4-(1,4,5-trimethyl-6-oxo-1,6-dihydropyridin-3-yl)benzyl)piperazin-1-yl)-3-oxopropyl)-1-methyl-1,2,3,4-tetrahydroisoquinoline-2-carbonyl)-3-(thiazol-2-yl)acrylonitrile] | 40 to 70 | 10 to 25 |
| COc1cc(-c2cn(C)c(=O)c3cnccc23)cc(OC)c1CN1CCN(Cc2cccc(C3CCCN3C(=O)/C(C#N)=C/c3nccs3)c2)CC1 (mixture of isomers) [Compound A33, (E/Z)-2-(2-(3-((4-(2,6-dimethoxy-4-(2-methyl-1-oxo-1,2-dihydro-2,7-naphthyridin-4-yl)benzyl)piperazin-1-yl)methyl)phenyl)pyrrolidine-1-carbonyl)-3(thiazol-2-yl)acrylonitrile] | > 75 | < 1.25 |
| COc1cc(-c2cn(C)c(=O)c3cnccc23)cc(OC)c1CN1CCN(Cc2cccc3c2CCN(C(=O)/C(C#N)=C\C2CCC2)C3C)CC1 (mixture of isomers) [Compound A24, (E/Z)-3-cyclobutyl-2-(5-((4-(2,6-dimethoxy-4-(2-methyl-1-oxo-1,2-dihydro-2,7-naphthyridin-4-yl)benzyl)piperazin-1-yl)methyl)-1-methyl-1,2,3,4-tetrahydroisoquinoline-2-carbonyl)acrylonitrile] | 40 to 70 | < 1.25 |
| COc1cc(-c2cn(C)c(=O)c3cnccc23)cc(OC)c1CN1C2CC1CN(Cc1cccc3c1CCN(C(=O)/C(C#N)=C/C(C)(C)C)C3C)C2 (mixture of isomers) [Compound A40] | 70 to 75 | 10 to 25 |
| COc1cc(-c2cn(C)c(=O)c3cnccc23)cc(OC)c1CN1CCN(Cc2cccc3c2CCN(C(=O)/C(C#N)=C/c2nc4ccccc4s2)C3C)CC1 (mixture of isomers) [Compound A6] | > 75 | < 1.25 |
